#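 Method: 48-hour compound exposure of cells in 96-well plates, five concentrations, linear interpolation of endpoints. Abbreviation: GI50, concentration required for 50% inhibition of growth.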 Active and inactive are the calls of the source. Rule as the data show it: active = GI50 up to about 1.1 µM and inactive = higher.
# Tests used:
# Experiment in all cases: inhibition of tumour cell growth, NCI panel, 48 h
# [1] = tested on: A549
# [2] = tested on: MCF7
# [3] = tested on: NCI-H522
# [4] = tested on: SW-620
# [5] = tested on: RPMI-8226
# [6] = tested on: Malme-3M
# [7] = tested on: HCT-116
# [8] = tested on: HOP-92
# [9] = tested on: OVCAR-5
# [10] = tested on: DU-145
# [11] = tested on: U-251
# [12] = tested on: SN12C
# [13] = tested on: UO-31
# [14] = tested on: Hs-578T
# [15] = tested on: EKVX
# [16] = tested on: K562
# [17] = tested on: HCC 2998
# [18] = tested on: MDA-N
# [19] = tested on: LOX IMVI
SMILES,GI50 [1],GI50 [2],GI50 [3],GI50 [4],GI50 [5],GI50 [6],GI50 [7],GI50 [8],GI50 [9],GI50 [10],GI50 [11],GI50 [12],GI50 [13],GI50 [14],GI50 [15],GI50 [16],GI50 [17],GI50 [18],GI50 [19]
O=C(CCCc1ccccn1)c1ccccc1,> 100 µM (inactive),> 100 µM (inactive),> 100 µM (inactive),> 100 µM (inactive),> 100 µM (inactive),> 100 µM (inactive),> 100 µM (inactive),> 100 µM (inactive),> 100 µM (inactive),> 100 µM (inactive),> 100 µM (inactive),> 100 µM (inactive),> 100 µM (inactive),> 100 µM (inactive),> 100 µM (inactive),> 100 µM (inactive),> 100 µM (inactive),> 100 µM (inactive),> 100 µM (inactive)
N#CCCC1(CCC#N)CCCCCCC(CCC#N)(CCC#N)C(=O)C1=O,> 100 µM (inactive),70.5 µM (inactive),> 100 µM (inactive),> 100 µM (inactive),–,> 100 µM (inactive),> 100 µM (inactive),> 100 µM (inactive),> 100 µM (inactive),> 100 µM (inactive),> 100 µM (inactive),58.2 µM (inactive),3.08 µM (inactive),> 100 µM (inactive),> 100 µM (inactive),> 100 µM (inactive),67.1 µM (inactive),> 100 µM (inactive),> 100 µM (inactive)
Cc1ccc(S(=O)(=O)N2C[C@@H]3CC[C@]4(CO[Si](C)(C)C(C)(C)C)N[C@@H](c5ccccc5)[C@H]2[C@H]34)cc1,22.4 µM (inactive),28.6 µM (inactive),11.6 µM (inactive),47.3 µM (inactive),7.87 µM (inactive),18.6 µM (inactive),12 µM (inactive),3.44 µM (inactive),77.8 µM (inactive),45 µM (inactive),46.5 µM (inactive),19.6 µM (inactive),33 µM (inactive),27.4 µM (inactive),34.2 µM (inactive),9.02 µM (inactive),18.4 µM (inactive),29.2 µM (inactive),28 µM (inactive)
Cc1cc(C)c2c(=O)cc(-c3ccccc3)[nH]c2c1,1.84 µM (inactive),3.01 µM (inactive),0.755 µM (active),0.738 µM (active),2.02 µM (inactive),2.71 µM (inactive),0.889 µM (active),19.1 µM (inactive),10.4 µM (inactive),4.44 µM (inactive),3.25 µM (inactive),5.25 µM (inactive),9.46 µM (inactive),4.59 µM (inactive),4.47 µM (inactive),0.57 µM (active),1.38 µM (inactive),0.284 µM (active),2.69 µM (inactive)
O=c1oc2ccccc2cc1-c1nc2ccccc2c(=O)[nH]1,> 100 µM (inactive),12 µM (inactive),> 100 µM (inactive),> 100 µM (inactive),> 100 µM (inactive),> 100 µM (inactive),> 100 µM (inactive),> 100 µM (inactive),> 100 µM (inactive),> 100 µM (inactive),50.4 µM (inactive),> 100 µM (inactive),> 100 µM (inactive),> 100 µM (inactive),> 100 µM (inactive),> 100 µM (inactive),> 100 µM (inactive),> 100 µM (inactive),> 100 µM (inactive)
CC[C@@]1(O)C(=O)OCc2c1cc1n(c2=O)Cc2c-1nc1ccccc1c2/C=N\NC(=O)C(N)CC(C)C (some centres undefined),0.016 µM (active),< 0.01 µM (active),< 0.0175 µM (active),0.0887 µM (active),0.024 µM (active),0.107 µM (active),0.0161 µM (active),0.0815 µM (active),0.726 µM (active),< 0.01 µM (active),< 0.01 µM (active),< 0.01 µM (active),< 0.0106 µM (active),11.3 µM (inactive),0.438 µM (active),0.0267 µM (active),0.118 µM (active),0.171 µM (active),< 0.01 µM (active)
COc1ccc(N2CN3OC(=O)N(c4ccc(OC)cc4)[C@@]3(c3ccccc3)C2)cc1,29 µM (inactive),16.9 µM (inactive),10.5 µM (inactive),6.04 µM (inactive),18.7 µM (inactive),10.8 µM (inactive),18.7 µM (inactive),15.9 µM (inactive),54.6 µM (inactive),81.5 µM (inactive),11.9 µM (inactive),31.6 µM (inactive),32.9 µM (inactive),37.6 µM (inactive),23.2 µM (inactive),4.02 µM (inactive),11.5 µM (inactive),3.29 µM (inactive),23 µM (inactive)
O=C1c2cccc([N+](=O)[O-])c2C(=O)N1Cc1ccccc1,> 100 µM (inactive),> 100 µM (inactive),> 100 µM (inactive),> 100 µM (inactive),> 100 µM (inactive),–,> 100 µM (inactive),> 100 µM (inactive),> 100 µM (inactive),> 100 µM (inactive),> 100 µM (inactive),> 100 µM (inactive),> 100 µM (inactive),> 100 µM (inactive),> 100 µM (inactive),> 100 µM (inactive),> 100 µM (inactive),> 100 µM (inactive),> 100 µM (inactive)
N=C(N)NS(=O)(=O)c1ccc(NC(=O)c2ccc3nc4ccccc4c(Nc4ccc(S(N)(=O)=O)cc4)c3c2)cc1,> 100 µM (inactive),> 100 µM (inactive),> 100 µM (inactive),> 100 µM (inactive),> 100 µM (inactive),> 100 µM (inactive),> 100 µM (inactive),> 100 µM (inactive),> 100 µM (inactive),> 100 µM (inactive),> 100 µM (inactive),> 100 µM (inactive),> 100 µM (inactive),> 100 µM (inactive),> 100 µM (inactive),> 100 µM (inactive),> 100 µM (inactive),> 100 µM (inactive),> 100 µM (inactive)
c1ccc2c(c1)N=c1cc3c(cc1N2)=NC12CCCCC1CC1=C(CCCC1)N32 (centres undefined),3.61 µM (inactive),3.3 µM (inactive),4.19 µM (inactive),5.47 µM (inactive),2.07 µM (inactive),2.17 µM (inactive),3.24 µM (inactive),4.46 µM (inactive),5.36 µM (inactive),> 10 µM (inactive),5.16 µM (inactive),2.36 µM (inactive),–,3.82 µM (inactive),4.53 µM (inactive),2.2 µM (inactive),6.76 µM (inactive),2.21 µM (inactive),3.57 µM (inactive)
O=[N+]([O-])c1cccc2nccc(NCCN3CCOCC3)c12,18.2 µM (inactive),9.46 µM (inactive),3.95 µM (inactive),8.91 µM (inactive),7.94 µM (inactive),13.8 µM (inactive),13.4 µM (inactive),33.2 µM (inactive),21.4 µM (inactive),41.7 µM (inactive),22.2 µM (inactive),16.3 µM (inactive),27.2 µM (inactive),15.9 µM (inactive),10.7 µM (inactive),11.8 µM (inactive),11.5 µM (inactive),16.7 µM (inactive),13.4 µM (inactive)
COc1cc(/C=N/c2ccc(Oc3ccc(Cl)cc3)c(Cl)c2)cc(OC)c1OC,18.5 µM (inactive),29.6 µM (inactive),12.3 µM (inactive),34.2 µM (inactive),18.9 µM (inactive),15.5 µM (inactive),13.8 µM (inactive),19.1 µM (inactive),34.7 µM (inactive),11.7 µM (inactive),18.2 µM (inactive),20.9 µM (inactive),11 µM (inactive),15.8 µM (inactive),21.1 µM (inactive),–,19.3 µM (inactive),22.6 µM (inactive),16.2 µM (inactive)
C[C@H]1CC[C@@H]2[C@@H](C)C[C@H]3[C@@H]4C(C)(C)OC(=O)[C@]4(C)C(=O)[C@@]23C1=O,> 100 µM (inactive),> 100 µM (inactive),50.7 µM (inactive),> 100 µM (inactive),> 100 µM (inactive),> 100 µM (inactive),> 100 µM (inactive),85.5 µM (inactive),> 100 µM (inactive),> 100 µM (inactive),–,> 100 µM (inactive),–,> 100 µM (inactive),> 100 µM (inactive),> 100 µM (inactive),> 100 µM (inactive),> 100 µM (inactive),> 100 µM (inactive)
CCNc1cc2c3c(c1)CCCN3CCC2,17.9 µM (inactive),40.7 µM (inactive),21 µM (inactive),21.3 µM (inactive),4.46 µM (inactive),19.3 µM (inactive),6.67 µM (inactive),12.6 µM (inactive),21.6 µM (inactive),28.1 µM (inactive),12.3 µM (inactive),2.87 µM (inactive),41.9 µM (inactive),25.6 µM (inactive),4.03 µM (inactive),4.01 µM (inactive),33 µM (inactive),3.1 µM (inactive),3.1 µM (inactive)
COC(=O)c1ccc2cc(O)c(O)cc2c1,36.9 µM (inactive),42.9 µM (inactive),16.1 µM (inactive),51.4 µM (inactive),29.4 µM (inactive),35.8 µM (inactive),41 µM (inactive),32.5 µM (inactive),> 88.9 µM (inactive),53.2 µM (inactive),29.6 µM (inactive),55.2 µM (inactive),17.4 µM (inactive),22.8 µM (inactive),20.5 µM (inactive),33.9 µM (inactive),> 68.9 µM (inactive),45 µM (inactive),36.1 µM (inactive)

# From ChEMBL document CHEMBL1201862, “PubChem BioAssay data set” (2004)
